{"source": "patent US20160120865A1", "about": "“TOPICAL TREATMENT OF LOCALIZED SCLERODERMA” (PRECISION DERMATOLOGY, INC., priority 2013, published 2016)", "tested_on": "TGFβ activated genes", "experiment": "TGF-β osmotic pump mouse skin model, gene expression by nanostring", "assay_type": "in vivo, C57BL/6 mice", "set-up": "key to Adam12 expression, TGFb/TGFbimatinib / spp1 expression, TGFb/TGFbimatinib / Thbs1 expression, TGFb/TGFbimatinib / Col1a1 expression, TGFb/TGFbimatinib / Sfrp2 expression, TGFb/TGFbimatinib / acta2 expression, TGFb/TGFbimatinib / Angpt2 expression, TGFb/TGFbimatinib / lox expression, TGFb/TGFbimatinib / Fmod expression, TGFb/TGFbimatinib / Wisp1 expression, TGFb/TGFbimatinib / serpine1 expression, TGFb/TGFbimatinib: TGFβ treatment works and the effect is blocked by imatinib in the local skin (+); DS+ skin (−)", "details": "for serpine1 expression, TGFb/TGFbimatinib / Adam12 expression, TGFb/TGFbimatinib / spp1 expression, TGFb/TGFbimatinib / Thbs1 expression, TGFb/TGFbimatinib / Col1a1 expression, TGFb/TGFbimatinib / Sfrp2 expression, TGFb/TGFbimatinib / acta2 expression, TGFb/TGFbimatinib / Angpt2 expression, TGFb/TGFbimatinib / lox expression, TGFb/TGFbimatinib / Fmod expression, TGFb/TGFbimatinib / Wisp1 expression, TGFb/TGFbimatinib: imatinib cream topical 2 times per day, 7 days; for serpine1 expression, TGFb/TGFbimatinib: FIG. 3; for Adam12 expression, TGFb/TGFbimatinib: FIG. 4; for spp1 expression, TGFb/TGFbimatinib: FIG. 5; for Thbs1 expression, TGFb/TGFbimatinib: FIG. 6; for Col1a1 expression, TGFb/TGFbimatinib: FIG. 7; for Sfrp2 expression, TGFb/TGFbimatinib: FIG. 8; for acta2 expression, TGFb/TGFbimatinib: FIG. 9; for Angpt2 expression, TGFb/TGFbimatinib: FIG. 10; for lox expression, TGFb/TGFbimatinib: FIG. 11; for Fmod expression, TGFb/TGFbimatinib: FIG. 12; for Wisp1 expression, TGFb/TGFbimatinib: FIG. 13", "method": "C57BL/6 mice were obtained from The Jackson Laboratory (Bar Harbor, Me.). Osmotic pumps (Alzet, model 2001) designed to deliver 1 μL/h were loaded with TGF-β (1.25 μg) in phosphate buffered saline (PBS) supplemented with 0.1 mg/mL bovine serum albumin (BSA). Pumps were implanted subcutaneously in 8-week-old mice, who were subsequently treated with imatinib or placebo cream. After […], mice were sacrificed, and the skin (˜1 cm^2) surrounding the pump outlet was homogenized in TRIzol (Invitrogen) for preparation of RNA, or fixed in formalin. Skin from mice treated with PBS and TGF-β was analyzed using nanostring technology. A set of 50 genes including inflammatory genes, macrophages markers, TGF-β-regulated genes, and others were analyzed. 100 ng of RNA per sample was used and gene expression was normalized to the expression of 8 housekeeping-genes.\nTGFb 2.5 μg/mL in 7 day Alzet pump.\nimatinib cream topical application 7 days (2 times per day)\n(3) −DS=Far from local skin"}
{"smiles": "Cc1ccc(NC(=O)c2ccc(CN3CCN(C)CC3)cc2)cc1Nc1nccc(-c2cccnc2)n1", "note": "[imatinib]", "values": [{"measurement": "serpine1 expression, TGFb/TGFbimatinib", "setting": "DS+ (near local skin)", "result": "(−)"}, {"measurement": "Adam12 expression, TGFb/TGFbimatinib", "setting": "DS+ (near local skin)", "result": "(−)"}, {"measurement": "spp1 expression, TGFb/TGFbimatinib", "setting": "DS+ (near local skin)", "result": "(−)"}, {"measurement": "Thbs1 expression, TGFb/TGFbimatinib", "setting": "DS+ (near local skin)", "result": "(−)"}, {"measurement": "Col1a1 expression, TGFb/TGFbimatinib", "setting": "DS+ (near local skin)", "result": "(−)"}, {"measurement": "Sfrp2 expression, TGFb/TGFbimatinib", "setting": "DS+ (near local skin)", "result": "(−)"}, {"measurement": "acta2 expression, TGFb/TGFbimatinib", "setting": "DS+ (near local skin)", "result": "(−)"}, {"measurement": "Angpt2 expression, TGFb/TGFbimatinib", "setting": "DS+ (near local skin)", "result": "(−)"}, {"measurement": "lox expression, TGFb/TGFbimatinib", "setting": "DS+ (near local skin)", "result": "(−)"}, {"measurement": "Fmod expression, TGFb/TGFbimatinib", "setting": "DS+ (near local skin)", "result": "(−)"}, {"measurement": "Wisp1 expression, TGFb/TGFbimatinib", "setting": "DS+ (near local skin)", "result": "(−)"}, {"measurement": "serpine1 expression, TGFb/TGFbimatinib", "setting": "LS (local skin)", "result": "(+)"}, {"measurement": "Adam12 expression, TGFb/TGFbimatinib", "setting": "LS (local skin)", "result": "(+)"}, {"measurement": "spp1 expression, TGFb/TGFbimatinib", "setting": "LS (local skin)", "result": "(+)"}, {"measurement": "Thbs1 expression, TGFb/TGFbimatinib", "setting": "LS (local skin)", "result": "(+?)"}, {"measurement": "Col1a1 expression, TGFb/TGFbimatinib", "setting": "LS (local skin)", "result": "(+)"}, {"measurement": "Sfrp2 expression, TGFb/TGFbimatinib", "setting": "LS (local skin)", "result": "(+)"}, {"measurement": "acta2 expression, TGFb/TGFbimatinib", "setting": "LS (local skin)", "result": "(+)"}, {"measurement": "Angpt2 expression, TGFb/TGFbimatinib", "setting": "LS (local skin)", "result": "(+)"}, {"measurement": "lox expression, TGFb/TGFbimatinib", "setting": "LS (local skin)", "result": "(+)"}, {"measurement": "Fmod expression, TGFb/TGFbimatinib", "setting": "LS (local skin)", "result": "(+)"}, {"measurement": "Wisp1 expression, TGFb/TGFbimatinib", "setting": "LS (local skin)", "result": "(+)"}, {"measurement": "effect of TGFβ treatment in skin", "setting": "local skin (+) and DS+ skin (−), topical imatinib cream", "result": "blocked"}, {"measurement": "activation of TGFβ activated genes", "setting": "mouse skin, topical imatinib cream", "result": "inhibits the activation of these genes"}]}
